Columns and labels:
[1] = target: T1, TIP48/TIP49 complex (Homo sapiens, UniProt Q9Y230+Q9Y265); assay: ATPase assay of TIP48/TIP49 complex (ADP-Glo); type: biochemical; conditions: concentration at which the ATPase activity was inhibited by 50%
T1 construct: made in house; host or cells: E. coli
How it was run: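 Recombinant human TIP48 and TIP49 expressed in E. coli (24.5 μg/mL final) were incubated 1.5 h at room temperature with compound (0.0007–200 μM, 2% DMSO) in Tris-HCl pH 7.5 buffer containing MgCl2 and ATP. ADP formed was detected by ADP-Glo luminescence; inhibition came from dose-response curves.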

[2] = system: human lymphoma cell line RAMOS cells; assay: Cell growth inhibition test using RAMOS cell, MTT assay; type: cell-based; conditions: 50% growth inhibition concentration
Procedure: A cell growth inhibition test was carried out by treating human lymphoma cell line RAMOS cells with a test compound for a given period and then counting the number of viable cells by MTT assay or CellTiter-Glo Luminescent Cell Viability Assay (manufactured by Promega Corp.; hereinafter, referred to as ATP assay).
RAMOS cells were suspended in a medium (RPMI1640 medium containing 10% fetal bovine serum). The cell suspension was inoculated at 5000 cells/150 μL/well to a 96-well multiwell plate. The test compound was dissolved in DMSO, and this solution was diluted with medium to prepare a sample solution (DMSO concentration: 1% or lower). Subsequently, test compound-free medium or the sample solution was added thereto at 50 μL/well. The MTT assay was carried out at the day of addition of the sample solution or the DMSO dilution to the cells and after culture at 37° C. for 3 days under 5% CO2 of the cells supplemented with the sample solution or the medium. The MTT assay was carried out as follows.
A 5 mg/mL solution of MTT (3-(4,5-dimethylthiazol-2-yl)-2,5-diphenyltetrazolium bromide, Sigma-Aldrich Corp., M-2128) was prepared using a phosphate buffered solution (Dulbecco's phosphate-buffered saline). This MTT solution was added at 20 μL/well to the plate. Then, the plate was incubated at 37° C. for 4 hours under 5% CO2. The plate was centrifuged at 1200 rpm for 5 minutes, and then, the culture supernatant was removed by suction using a dispenser. DMSO was added thereto at 150 μL/well to dissolve formed formazan. […] from each well was rendered uniform by the stirring of the plate using a plate mixer. The absorbance of each well was measured using a plate reader under conditions involving OD of 540 nm and reference of 660 nm.
The number of viable cells and absorbance (hereinafter, referred to as an OD value) have been confirmed to correlate with each other. Therefore, the rate of cell growth was calculated according to the following expression: Rate of cell growth (T/C %) of a test compound-supplemented well=100×[(B−C)/(A−C)] wherein A represents the OD value (final culture date) of a test compound-free well; B represents the OD value (final culture date) of a test compound-containing well; and C represents the OD value (day of cell inoculation) of a well at the start of contact of the cells with the test compound.
T/C % at each concentration of the test compound was determined. The concentration at which the test compound offered 50% growth rate was calculated as a 50% growth inhibition concentration (GI50) value from the growth rates at two points interpolating 50% and the concentrations, and is shown in Table 56.

T1 sequence (Q9Y230 whole entry): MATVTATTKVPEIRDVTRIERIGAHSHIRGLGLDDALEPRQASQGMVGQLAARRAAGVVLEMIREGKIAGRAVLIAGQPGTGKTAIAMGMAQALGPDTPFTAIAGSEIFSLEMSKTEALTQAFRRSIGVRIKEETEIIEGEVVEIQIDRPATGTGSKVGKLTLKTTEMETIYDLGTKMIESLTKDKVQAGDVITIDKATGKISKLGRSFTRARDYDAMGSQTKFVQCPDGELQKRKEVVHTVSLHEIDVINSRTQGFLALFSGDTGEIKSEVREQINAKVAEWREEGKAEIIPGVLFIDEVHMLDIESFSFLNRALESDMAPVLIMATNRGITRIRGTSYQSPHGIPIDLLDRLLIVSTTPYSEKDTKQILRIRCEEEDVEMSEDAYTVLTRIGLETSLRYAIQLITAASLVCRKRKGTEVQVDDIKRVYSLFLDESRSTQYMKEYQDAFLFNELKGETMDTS
T1 sequence (Q9Y265 whole entry): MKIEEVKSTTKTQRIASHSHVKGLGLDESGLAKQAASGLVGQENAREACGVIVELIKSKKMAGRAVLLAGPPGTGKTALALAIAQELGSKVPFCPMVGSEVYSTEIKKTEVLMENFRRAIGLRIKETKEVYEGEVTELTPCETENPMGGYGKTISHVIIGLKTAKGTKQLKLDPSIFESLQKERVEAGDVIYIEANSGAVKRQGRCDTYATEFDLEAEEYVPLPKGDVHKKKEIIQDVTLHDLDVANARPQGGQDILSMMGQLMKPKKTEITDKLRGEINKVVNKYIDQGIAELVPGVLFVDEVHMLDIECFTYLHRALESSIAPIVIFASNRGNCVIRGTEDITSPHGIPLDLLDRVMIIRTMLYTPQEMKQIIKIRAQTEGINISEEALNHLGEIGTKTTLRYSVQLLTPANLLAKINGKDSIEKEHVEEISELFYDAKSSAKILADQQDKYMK

Compound | IC50 [1] [nM] | GI50 [2] [nM]
COc1ccc(Cl)cc1C(=O)NCC(C)(C)CC(=O)Nc1c(CCNC(=O)OC(C)(C)C)n(C)n(-c2ccccc2)c1=O [Example 20, tert-Butyl N-{2-[4-({4-[(5-chloro-2-methoxybenzoyl)amino]-3,3-dimethylbutanoyl}amino)-2-methyl-5-oxo-1-phenyl-2,3-dihyro-1H-pyrazol-3-yl]ethyl}carbamate] | 65 | 190
COc1ccc(Cl)cc1C(=O)NCC(C)(C)CC(=O)Nc1c(CCN)n(C)n(-c2ccccc2)c1=O [Example 21] | 110 | 920
COc1ccc(Cl)cc1C(=O)NCC(C)(C)CC(=O)Nc1c(CCN(C)C)n(C)n(-c2ccccc2)c1=O [Example 22, 5-Chloro-N-[4-({5-[2-(dimethylamino)ethyl]-1-methyl-3-oxo-2-phenyl-2,3-dihydro-1H-pyrazol-4-yl}amino)-2,2-dimethyl-4-oxobutyl]-2-methoxybenzamide] | 110 | 460
CCOc1ccc(Cl)cc1NC(=O)CC(C)(C)CC(=O)Nc1c(CCN(C)C)n(C)n(-c2ccccc2)c1=O [Example 23, N-(5-Chloro-2-ethoxyphenyl)-N′-{5-[2-(dimethylamino)ethyl]-1-methyl-3-oxo-2-phenyl-2,3-dihydro-1H-pyrazol-4-yl}-3,3-dimethylpentanediamide] | 110 | 270
CCOc1cc(F)c(Cl)cc1NC(=O)CC(C)(C)CC(=O)Nc1c(CCN(C)C)n(C)n(-c2ccccc2)c1=O [Example 24, N-(5-Chloro-2-ethoxy-4-fluorophenyl)-N′-{5-[2-(dimethylamino)ethyl]-1-methyl-3-oxo-2-phenyl-2,3-dihydro-1H-pyrazol-4-yl}-3,3-dimethylpentanediamide] | 380 | 480
CCOc1ncc(Cl)cc1NC(=O)CC(C)(C)CC(=O)Nc1c(CCN(C)C)n(C)n(-c2ccccc2)c1=O [Example 25, N-(5-Chloro-2-ethoxy-3-pyridyl)-N′-{5-[2-(dimethylamino)ethyl]-1-methyl-3-oxo-2-phenyl-2,3-dihydro-1H-pyrazol-4-yl}-3,3-dimethylpentanediamide] | 140 | 490

Continued, values first:

IC50 [1] [nM] | GI50 [2] [nM] | Compound
65 | 550 | CCOc1ccc(Cl)cc1C(=O)NCC(C)(C)CC(=O)Nc1c(CCNC(C)C)n(C)n(-c2ccccc2)c1=O [Example 18, 5-Chloro-N-[4-({5-[2-(isopropylamino)ethyl]-1-methyl-3-oxo-2-phenyl-2,3-dihydro-1H-pyrazol-4-yl}amino)-2,2-dimethyl-4-oxobutyl]-2-ethoxybenzamide]
63 | 150 | CCOc1ccc(Cl)cc1C(=O)NCC(C)(C)CC(=O)Nc1c(CCN(C)C(C)C)n(C)n(-c2ccccc2)c1=O [Example 19, 5-Chloro-2-ethoxy-N-{4-[(5-{2-[isopropyl(methyl)amino]ethyl}-1-methyl-3-oxo-2-phenyl-2,3-dihydro-1H-pyrazol-4-yl)amino]-2,2-dimethyl-4-oxobutyl}benzamide]
63 | 130 | CCOc1ccc(Cl)cc1C(=O)NCC(C)(C)CC(=O)Nc1c(CCNC)n(C)n(-c2ccccc2)c1=O [Example 33, 5-Chloro-N-[2,2-dimethyl-4-({1-methyl-5-[2-(methylamino)ethyl]-3-oxo-2-phenyl-2,3-dihydro-1H-pyrazol-4-yl}amino)-4-oxobutyl]-2-ethoxybenzamide]
26 | 98 | CCOc1ccc(Cl)cc1C(=O)NCC(C)(C)CC(=O)Nc1c(CCN(C)CC)n(C)n(-c2ccccc2)c1=O [Example 35, 5-Chloro-2-ethoxy-N-{4-[(5-{2-[ethyl(methyl)amino]ethyl}-1-methyl-3-oxo-2-phenyl-2,3-dihydro-1H-pyrazol-4-yl)amino]-2,2-dimethyl-4-oxobutyl}benzamide]
29 | 100 | CCOc1ccc(Cl)cc1C(=O)NCC(C)(C)CC(=O)Nc1c(CCCN(C)C)n(C)n(-c2ccccc2)c1=O [Example 63, 5-Chloro-N-[4-({5-[3-(dimethylamino)propyl]-1-methyl-3-oxo-2-phenyl-2,3-dihydro-1H-pyrazol-4-yl}amino)-2,2-dimethyl-4-oxobutyl]-2-ethoxybenzamide]
